Molecular target: SARS-COV-2 3CLpro (having a P132H mutation, 3CLpro^P132H) (Severe acute respiratory syndrome coronavirus 2, UniProt P0DTD1, P3395H)
Type: biochemical

| SMILES | Inhibition Rate ([Cpd.]=40 uM) |
| --- | --- |
| C/C(=N\Nc1nc2c(c(=O)[nH]c(=O)n2C)n1Cc1cccc2ccccc12)c1ccc(O)cc1 [D1, C/C(=N\Nc1nc2c(c(=O)[nH]c(=O)n2C)n1Cc1cccc2ccccc12)c1ccc(O)cc1] | 1.49 |
| O=C(CN1C(=O)NC2(CCCC2)C1=O)Nc1ccccc1C(=O)Nc1ccc2c(c1)OCO2 [D2, O=C(CN1C(=O)NC2(CCCC2)C1=O)Nc1ccccc1C(=O)Nc1ccc2c(c1)OCO2] | 0.56 |
| Cc1c(C(=O)NCCC2=CCCCC2)sc2ncnc(N(C)c3ccccc3)c12 [D3, Cc1c(C(=O)NCCC2=CCCCC2)sc2ncnc(N(C)c3ccccc3)c12] | 0.63 |
| COc1ccc(Cn2cc(C(CC(=O)N3CCCC3)c3ccccc3F)c3ccccc32)cc1 (stereo not drawn) [D4, COc1ccc(Cn2cc(C(CC(=O)N3CCCC3)c3ccccc3F)c3ccccc32)cc1] | < 0.5 |
| COc1ccccc1-n1c(=O)c2c3c(sc2n(Cc2cccc(F)c2)c1=O)CN(C(C)=O)CC3 [D5, COc1ccccc1-n1c(=O)c2c3c(sc2n(Cc2cccc(F)c2)c1=O)CN(C(C)=O)CC3] | < 0.5 |
| CC(C)C(NC(=O)c1ccccc1Cl)C(=O)OCC(=O)Nc1cccc(S(N)(=O)=O)c1 (stereo not drawn) [D6, CC(C)C(NC(=O)c1ccccc1Cl)C(=O)OCC(=O)Nc1cccc(S(N)(=O)=O)c1] | < 0.5 |
| COc1ccccc1-n1c(=O)c2c3c(sc2n(Cc2cccc(Cl)c2)c1=O)CN(C(C)=O)CC3 [D7, COc1ccccc1-n1c(=O)c2c3c(sc2n(Cc2cccc(Cl)c2)c1=O)CN(C(C)=O)CC3] | < 0.5 |
| O=C(c1ccsc1)N1CCC[C@H](n2c(=O)n(Cc3cccc(F)c3)c3cccnc32)C1 [D8, O=C(c1ccsc1)N1CCC[C@H](n2c(=O)n(Cc3cccc(F)c3)c3cccnc32)C1] | < 0.5 |
| Cc1ccccc1N1C(=O)C(=Cc2ccc(N3CCOCC3)cc2)c2ccccc2C1=O [D9, Cc1ccccc1N1C(=O)C(=Cc2ccc(N3CCOCC3)cc2)c2ccccc2C1=O] | < 0.5 |
| C/C(=N\Nc1nc2c(c(O)nc(=O)n2C)n1Cc1cccc2ccccc12)c1ccc(O)cc1 [D10, C/C(=N\Nc1nc2c(c(O)nc(=O)n2C)n1Cc1cccc2ccccc12)c1ccc(O)cc1] | < 0.5 |
| Cc1ccc(N2C(=O)N(CC(=O)Nc3cccc(S(N)(=O)=O)c3)C(=O)C2C)cc1 (stereo not drawn) [D11, Cc1ccc(N2C(=O)N(CC(=O)Nc3cccc(S(N)(=O)=O)c3)C(=O)C2C)cc1] | < 0.5 |
| CC1CC(C)CN(C(=O)c2ccccc2NC(=O)N2CC(O)CC(F)(F)C2)C1 (stereo not drawn) [D12, CC1CC(C)CN(C(=O)c2ccccc2NC(=O)N2CC(O)CC(F)(F)C2)C1] | < 0.5 |
| CC(C)[C@H](NS(=O)(=O)c1ccccc1F)C(=O)OCC(=O)Nc1cccc(S(N)(=O)=O)c1 [D13, CC(C)[C@H](NS(=O)(=O)c1ccccc1F)C(=O)OCC(=O)Nc1cccc(S(N)(=O)=O)c1] | < 0.5 |
| Cc1c(C(=O)N(C)Cc2ccccc2)sc2ncnc(N(C)c3ccccc3)c12 [D14, Cc1c(C(=O)N(C)Cc2ccccc2)sc2ncnc(N(C)c3ccccc3)c12] | < 0.5 |
| Cn1nccc1C(=O)N1CCC[C@H](n2c(=O)n(Cc3ccccc3)c3cccnc32)C1 [D15, Cn1nccc1C(=O)N1CCC[C@H](n2c(=O)n(Cc3ccccc3)c3cccnc32)C1] | < 0.5 |
| O=CN1CCCN(C(=O)CC2C(=O)NCCN2Cc2cccc(Oc3ccccc3)c2)CC1 (stereo not drawn) [D16, O=CN1CCCN(C(=O)CC2C(=O)NCCN2Cc2cccc(Oc3ccccc3)c2)CC1] | < 0.5 |
| COc1ccccc1-n1c(=O)c2c3c(sc2n(Cc2ccccc2)c1=O)CN(C(C)=O)CC3 [D17, COc1ccccc1-n1c(=O)c2c3c(sc2n(Cc2ccccc2)c1=O)CN(C(C)=O)CC3] | < 0.5 |
| O=C(c1ccco1)N1CCC[C@H](n2c(=O)n(Cc3ccccc3)c3cccnc32)C1 [D18, O=C(c1ccco1)N1CCC[C@H](n2c(=O)n(Cc3ccccc3)c3cccnc32)C1] | < 0.5 |

— publication PMC10444862, “Using macromolecular electron densities to improve the enrichment of active compounds in virtual screening” (Communications Chemistry, 2023)
